Reference: BigSolDB 2.1

Nc1ccc(S(=O)(=O)Nc2ccc(Cl)nn2)cc1
solubility (mole fraction)
Details	in 1,4-dioxane	in acetone	in acetonitrile	in ethanol	in ethyl acetate	in isopropanol	in methanol	in n-butanol	in water
283.15 K	0.0994	0.0647	0.0187	0.00381	0.0135	0.0031	0.00473	0.00335	2.25e-05
288.15 K	0.106	0.0715	0.0193	0.00432	0.0141	0.00345	0.00513	0.00372	3.31e-05
293.15 K	0.116	0.0804	0.0202	0.00484	0.0152	0.00382	0.00569	0.00421	4.39e-05
298.15 K	0.129	0.0908	0.0213	0.00543	0.0165	0.00429	0.00627	0.00474	5.9e-05
303.15 K	0.143	0.102	0.0224	0.00616	0.0179	0.00476	0.00696	0.00531	7.53e-05
308.15 K	0.159	0.116	0.0239	0.00689	0.0198	0.00538	0.00779	0.00596	9.52e-05
313.15 K	0.179	0.131	0.0258	0.00777	0.0219	0.00614	0.00867	0.00676	0.000119
318.15 K	0.204	0.147	0.0283	0.00879	0.0244	0.00702	0.00966	0.00768	0.000149
323.15 K	0.235	0.165	0.0312	0.0101	0.0268	0.00792	0.0109	0.00867	0.000184
